Laboratory results reported in the NIST ThermoML archive (doi:10.1021/je900442b).
Numbers after ± are expanded uncertainties.

Assays:
[1] = xn = mol fraction of the nth substance listed; conditions: 101 kPa, Liquid
[2] = 101 kPa, Liquid

Q: Which mass density ([1]; 298.15 K, x1 = 0.1004) does the source give for `CCCCOC(C)=O` [butyl ethanoate] + CO here?
A: 810.58 ± 0.86 kg/m3

Q: And the speed of sound ([1]; 298.15 K, x1 = 0.1004)?
A: 1130 ± 4 m/s

Q: What about the mass density ([1]; 298.15 K, x1 = 0.2329) of the same compound?
A: 831.49 ± 0.88 kg/m3

Q: What about the speed of sound ([1]; 298.15 K, x1 = 0.2329) of the same compound?
A: 1151 ± 4 m/s

Q: And the mass density ([1]; 298.15 K, x1 = 0.2996)?
A: 839.18 ± 0.88 kg/m3

Q: And the speed of sound ([1]; 298.15 K, x1 = 0.2996)?
A: 1160 ± 4 m/s

Q: And the mass density ([1]; 298.15 K, x1 = 0.4008)?
A: 848.46 ± 0.88 kg/m3

Q: And the speed of sound ([1]; 298.15 K, x1 = 0.4008)?
A: 1171 ± 4 m/s

Q: And the mass density ([1]; 298.15 K, x1 = 0.498)?
A: 855.46 ± 0.88 kg/m3

Q: What about the speed of sound ([1]; 298.15 K, x1 = 0.498) of the same compound?
A: 1179 ± 4 m/s

Q: What about the mass density ([1]; 298.15 K, x1 = 0.5988) of the same compound?
A: 861.3 ± 0.88 kg/m3

Q: And the speed of sound ([1]; 298.15 K, x1 = 0.5988)?
A: 1185 ± 4 m/s

Q: What about the mass density ([1]; 298.15 K, x1 = 0.6994) of the same compound?
A: 866.05 ± 0.87 kg/m3

Q: What about the speed of sound ([1]; 298.15 K, x1 = 0.6994) of the same compound?
A: 1189 ± 4 m/s

Q: And the mass density ([1]; 298.15 K, x1 = 0.7912)?
A: 869.71 ± 0.87 kg/m3

Q: And the speed of sound ([1]; 298.15 K, x1 = 0.7912)?
A: 1191 ± 4 m/s

Q: What about the mass density ([1]; 298.15 K, x1 = 0.8992) of the same compound?
A: 873.3 ± 0.87 kg/m3

Q: What about the speed of sound ([1]; 298.15 K, x1 = 0.8992) of the same compound?
A: 1191 ± 4 m/s

Q: And the mass density ([1]; 298.15 K, x1 = 1)?
A: 876.18 ± 0.86 kg/m3

Q: And the speed of sound ([1]; 298.15 K, x1 = 1)?
A: 1190 ± 4 m/s

Q: And the mass density ([1]; 303.15 K, x1 = 0.1004)?
A: 805.75 ± 0.9 kg/m3

Q: What about the speed of sound ([1]; 303.15 K, x1 = 0.1004) of the same compound?
A: 1112 ± 4 m/s

Q: And the mass density ([1]; 303.15 K, x1 = 0.2329)?
A: 826.61 ± 0.92 kg/m3

Q: What about the speed of sound ([1]; 303.15 K, x1 = 0.2329) of the same compound?
A: 1132 ± 4 m/s

Q: What about the mass density ([1]; 303.15 K, x1 = 0.2996) of the same compound?
A: 834.29 ± 0.92 kg/m3

Q: And the speed of sound ([1]; 303.15 K, x1 = 0.2996)?
A: 1140 ± 4 m/s

Q: And the mass density ([1]; 303.15 K, x1 = 0.4008)?
A: 843.52 ± 0.92 kg/m3

Q: What about the speed of sound ([1]; 303.15 K, x1 = 0.4008) of the same compound?
A: 1151 ± 4 m/s

Q: What about the mass density ([1]; 303.15 K, x1 = 0.498) of the same compound?
A: 850.52 ± 0.92 kg/m3

Q: And the speed of sound ([1]; 303.15 K, x1 = 0.498)?
A: 1159 ± 4 m/s

Q: What about the mass density ([1]; 303.15 K, x1 = 0.5988) of the same compound?
A: 856.34 ± 0.92 kg/m3

Q: And the speed of sound ([1]; 303.15 K, x1 = 0.5988)?
A: 1165 ± 4 m/s

Q: And the mass density ([1]; 303.15 K, x1 = 0.6994)?
A: 861.1 ± 0.91 kg/m3

Q: What about the speed of sound ([1]; 303.15 K, x1 = 0.6994) of the same compound?
A: 1170 ± 4 m/s

Q: And the mass density ([1]; 303.15 K, x1 = 0.7912)?
A: 864.74 ± 0.91 kg/m3

Q: What about the speed of sound ([1]; 303.15 K, x1 = 0.7912) of the same compound?
A: 1172 ± 4 m/s

Q: And the mass density ([1]; 303.15 K, x1 = 0.8992)?
A: 868.38 ± 0.91 kg/m3

Q: And the speed of sound ([1]; 303.15 K, x1 = 0.8992)?
A: 1173 ± 4 m/s

Q: And the mass density ([1]; 303.15 K, x1 = 1)?
A: 871.27 ± 0.9 kg/m3

Q: And the speed of sound ([1]; 303.15 K, x1 = 1)?
A: 1173 ± 4 m/s

Q: What about the mass density ([1]; 308.15 K, x1 = 0.1004) of the same compound?
A: 800.39 ± 0.94 kg/m3

Q: And the speed of sound ([1]; 308.15 K, x1 = 0.1004)?
A: 1092 ± 4 m/s

Q: And the mass density ([1]; 308.15 K, x1 = 0.2329)?
A: 821.09 ± 0.95 kg/m3

Q: What about the speed of sound ([1]; 308.15 K, x1 = 0.2329) of the same compound?
A: 1111 ± 4 m/s

Q: And the mass density ([1]; 308.15 K, x1 = 0.2996)?
A: 828.66 ± 0.96 kg/m3

Q: And the speed of sound ([1]; 308.15 K, x1 = 0.2996)?
A: 1118 ± 4 m/s

Q: What about the mass density ([1]; 308.15 K, x1 = 0.4008) of the same compound?
A: 837.84 ± 0.96 kg/m3

Q: And the speed of sound ([1]; 308.15 K, x1 = 0.4008)?
A: 1128 ± 4 m/s

Q: What about the mass density ([1]; 308.15 K, x1 = 0.498) of the same compound?
A: 844.77 ± 0.96 kg/m3

Q: And the speed of sound ([1]; 308.15 K, x1 = 0.498)?
A: 1136 ± 4 m/s

Q: What about the mass density ([1]; 308.15 K, x1 = 0.5988) of the same compound?
A: 850.55 ± 0.96 kg/m3

Q: What about the speed of sound ([1]; 308.15 K, x1 = 0.5988) of the same compound?
A: 1141 ± 4 m/s

Q: And the mass density ([1]; 308.15 K, x1 = 0.6994)?
A: 855.28 ± 0.95 kg/m3

Q: What about the speed of sound ([1]; 308.15 K, x1 = 0.6994) of the same compound?
A: 1145 ± 4 m/s

Q: What about the mass density ([1]; 308.15 K, x1 = 0.7912) of the same compound?
A: 858.91 ± 0.95 kg/m3

Q: And the speed of sound ([1]; 308.15 K, x1 = 0.7912)?
A: 1148 ± 4 m/s

Q: And the mass density ([1]; 308.15 K, x1 = 0.8992)?
A: 862.52 ± 0.94 kg/m3

Q: What about the speed of sound ([1]; 308.15 K, x1 = 0.8992) of the same compound?
A: 1149 ± 4 m/s

Q: What about the mass density ([1]; 308.15 K, x1 = 1) of the same compound?
A: 865.41 ± 0.94 kg/m3

Q: And the speed of sound ([1]; 308.15 K, x1 = 1)?
A: 1150 ± 4 m/s

Q: And the mass density ([1]; 313.15 K, x1 = 0.1004)?
A: 795.84 ± 0.98 kg/m3

Q: What about the speed of sound ([1]; 313.15 K, x1 = 0.1004) of the same compound?
A: 1076 ± 4 m/s

Q: What about the mass density ([1]; 313.15 K, x1 = 0.2329) of the same compound?
A: 816.38 ± 0.99 kg/m3

Q: What about the speed of sound ([1]; 313.15 K, x1 = 0.2329) of the same compound?
A: 1093 ± 4 m/s

Q: What about the mass density ([1]; 313.15 K, x1 = 0.2996) of the same compound?
A: 823.89 ± 1 kg/m3

Q: And the speed of sound ([1]; 313.15 K, x1 = 0.2996)?
A: 1100 ± 4 m/s

Q: What about the mass density ([1]; 313.15 K, x1 = 0.4008) of the same compound?
A: 833.02 ± 1 kg/m3

Q: What about the speed of sound ([1]; 313.15 K, x1 = 0.4008) of the same compound?
A: 1109 ± 4 m/s

Q: What about the mass density ([1]; 313.15 K, x1 = 0.498) of the same compound?
A: 839.91 ± 1 kg/m3

Q: What about the speed of sound ([1]; 313.15 K, x1 = 0.498) of the same compound?
A: 1116 ± 4 m/s

Q: And the mass density ([1]; 313.15 K, x1 = 0.5988)?
A: 845.66 ± 0.99 kg/m3

Q: What about the speed of sound ([1]; 313.15 K, x1 = 0.5988) of the same compound?
A: 1122 ± 4 m/s

Q: What about the mass density ([1]; 313.15 K, x1 = 0.6994) of the same compound?
A: 850.36 ± 0.99 kg/m3

Q: What about the speed of sound ([1]; 313.15 K, x1 = 0.6994) of the same compound?
A: 1126 ± 4 m/s

Q: And the mass density ([1]; 313.15 K, x1 = 0.7912)?
A: 853.98 ± 0.99 kg/m3

Q: What about the speed of sound ([1]; 313.15 K, x1 = 0.7912) of the same compound?
A: 1128 ± 4 m/s

Q: What about the mass density ([1]; 313.15 K, x1 = 0.8992) of the same compound?
A: 857.58 ± 0.98 kg/m3

Q: And the speed of sound ([1]; 313.15 K, x1 = 0.8992)?
A: 1130 ± 4 m/s

Q: What about the mass density ([1]; 313.15 K, x1 = 1) of the same compound?
A: 860.46 ± 0.98 kg/m3

Q: What about the speed of sound ([1]; 313.15 K, x1 = 1) of the same compound?
A: 1131 ± 4 m/s

Q: Which results are given for `CO` [methanol]?
A: mass density ([2]; 298.15 K): 786.38 ± 0.84 kg/m3; speed of sound ([2]; 298.15 K): 1109 ± 4 m/s; mass density ([2]; 303.15 K): 781.65 ± 0.87 kg/m3; speed of sound ([2]; 303.15 K): 1092 ± 4 m/s; mass density ([2]; 308.15 K): 776.52 ± 0.91 kg/m3; speed of sound ([2]; 308.15 K): 1074 ± 4 m/s; mass density ([2]; 313.15 K): 772.15 ± 0.95 kg/m3; speed of sound ([2]; 313.15 K): 1060 ± 4 m/s

Q: With `CO` [methanol] + CC(=O)OC(C)(C)C as the compound, how does the mass density ([1]; 298.15 K, x2 = 0) read?
A: 786.38 ± 0.84 kg/m3

Q: And the speed of sound ([1]; 298.15 K, x2 = 0)?
A: 1109 ± 4 m/s

Q: And the mass density ([1]; 303.15 K, x2 = 0)?
A: 781.65 ± 0.87 kg/m3

Q: And the speed of sound ([1]; 303.15 K, x2 = 0)?
A: 1092 ± 4 m/s

Q: And the mass density ([1]; 308.15 K, x2 = 0)?
A: 776.52 ± 0.91 kg/m3

Q: What about the speed of sound ([1]; 308.15 K, x2 = 0) of the same compound?
A: 1074 ± 4 m/s

Q: What about the mass density ([1]; 313.15 K, x2 = 0) of the same compound?
A: 772.15 ± 0.95 kg/m3

Q: And the speed of sound ([1]; 313.15 K, x2 = 0)?
A: 1060 ± 4 m/s

Q: Which mass density ([1]; 298.15 K, x2 = 0) does the source give for `CO` [methanol] + CCCCOC(C)=O here?
A: 786.38 ± 0.84 kg/m3

Q: And the speed of sound ([1]; 298.15 K, x2 = 0)?
A: 1109 ± 4 m/s

Q: What about the mass density ([1]; 303.15 K, x2 = 0) of the same compound?
A: 781.65 ± 0.87 kg/m3

Q: And the speed of sound ([1]; 303.15 K, x2 = 0)?
A: 1092 ± 4 m/s

Q: What about the mass density ([1]; 308.15 K, x2 = 0) of the same compound?
A: 776.52 ± 0.91 kg/m3

Q: And the speed of sound ([1]; 308.15 K, x2 = 0)?
A: 1074 ± 4 m/s

Q: And the mass density ([1]; 313.15 K, x2 = 0)?
A: 772.15 ± 0.95 kg/m3

Q: What about the speed of sound ([1]; 313.15 K, x2 = 0) of the same compound?
A: 1060 ± 4 m/s
